Results taken from patent US9334246B2, “Substituted triazines for malaria treatment and chemoprophylaxis” (The United States of America, as represented by the …, priority 2013, dated 2016).
Values after ≈ are worked out from the molar mass of the structure shown.

What was measured:
Type in all cases: cell-based, Plasmodium falciparum
[1] = test system: P. falciparum W2; test: Malaria SYBR Green Fluorescence Assay, W2 strain; conditions: for W2 / IC50: SYBR Green Assay; for IC50: Plasmodium falciparum
[2] = test system: P. falciparum D6; test: Malaria SYBR Green Fluorescence Assay, D6 strain; conditions: for D6 / IC50: SYBR Green Assay; for IC50: Plasmodium falciparum
[3] = test system: P. falciparum C235; test: Malaria SYBR Green Fluorescence Assay, C235 strain; conditions: for C235 / IC50: SYBR Green Assay; for IC50: Plasmodium falciparum

Row | Molecule | W2 (SYBR Green Assay IC50) [1] [ng/mL] | D6 (SYBR Green Assay IC50) [2] [ng/mL] | C235 (SYBR Green Assay IC50) [3] [ng/mL] | W2 [1] [ng/mL] | D6 [2] [ng/mL] | C235 [3] [ng/mL] | also measured
1 | O=[N+]([O-])c1ccccc1-c1nc(N2CCCN(CCO)CC2)nc(C(Cl)(Cl)Cl)n1 [Cmpd 552] | 76.05 | 170.4 | 175.6 |  |  |  | 
2 | CN(C)CCCNc1nc(-c2ccccc2)nc(C(Cl)(Cl)Cl)n1 [Cmpd 443] | 43 | 145 | 161 |  |  |  | 
3 | CC(C)N1CCC(CNc2nc(-c3ccc(-c4ccccc4)cc3)nc(C(Cl)(Cl)Cl)n2)CC1 [Cmpd 496] | 15 | 29 | 14 |  |  |  | 
4 | FC(F)(F)OC1═CC═C(NC2═NC(═NC(═N2)C(Cl)(Cl)Cl)N2CC3CC2CN3)C═C1 [Compound 725] |  |  |  | 53 | 64 | 93 | 
5 | CSc1ccc(-c2nc(N3CCN(CCO)CC3)nc(C(Cl)(Cl)Cl)n2)cc1 [Cmpd 309] |  |  |  | 122 | 188 | 438 | 
6 | CSC1═CC═C(C═C1)C1═NC(═NC(═N1)C(Cl)(Cl)Cl)N1CCC(N)CC1 [Compound 626] | 7 | 18 | 11 |  |  |  | 
7 | CCN(CC)CCNc1nc(-c2ccccc2C)nc(C(Cl)(Cl)Cl)n1 [Cmpd 123] |  |  |  | 31 | 57 | 67 | 
8 | CN1CCC(CNc2nc(-c3ccc(C(Cl)(Cl)Cl)cc3)nc(C(Cl)(Cl)Cl)n2)CC1 [Cmpd 511] | 34 | 77 | 56 |  |  |  | 
9 | CN1CCC(CNc2nc(-c3ccc(S(C)(=O)=O)cc3)nc(C(Cl)(Cl)Cl)n2)CC1 [Cmpd 510] | 88 | 416 | 273 |  |  |  | 
10 | COc1ncccc1Nc1nc(N2CCCNCC2)nc(C(Cl)(Cl)Cl)n1 [Cmpd 378] | 59 | 50 | 98 |  |  |  | 
11 | CN1CCN(c2nc(-c3cccc(Cl)c3)nc(C(Cl)(Cl)Cl)n2)CC1 [Cmpd 436] | 19 | 155 | 158 |  |  |  | 
12 | CC(C)CN1CCC(CC1)NC1═NC(═NC(═N1)C(Cl)(Cl)Cl)C1═CC═C(Cl)C(Cl)═C1 [Compound 692] |  |  |  | 24 | 32 | 43 | 
13 | COc1cc(OC)cc(-c2nc(N3CCC(N)CC3)nc(C(Cl)(Cl)Cl)n2)c1 [Compound 635, COC1═CC(═CC(OC)═C1)C1═NC(═NC(═N1)C(Cl)(Cl)Cl)N1CCC(N)CC1] | 135 | 259 | 218 |  |  |  | 
14 | CCN(CC)CCNc1nc(-c2ccccc2OC)nc(C(Cl)(Cl)Cl)n1 [Cmpd 107] |  |  |  | 95 | 212 | 158 | 
15 | CCN1CCCC(Nc2nc(Cc3ccc(OC)cc3)nc(C(Cl)(Cl)Cl)n2)C1 (stereo not drawn) [Cmpd 81] |  |  |  | 601 | 633 | 992 | 
16 | COc1ccc(-c2nc(N3CCCNCC3)nc(C(Cl)(Cl)Cl)n2)c2ccccc12 [Cmpd 281] |  |  |  | 66 | 148 | 205 | 
17 | NC1(CNc2nc(Nc3ccc(OC(F)(F)F)cc3)nc(C(Cl)(Cl)Cl)n2)CCOCC1 [Cmpd 303] |  |  |  | 61 | 43 | 65 | 
18 | CCN1CCC(CNc2nc(Cc3ccccc3OC)nc(C(Cl)(Cl)Cl)n2)CC1 [Cmpd 293] |  |  |  | 13 | 48 | 70 | 
19 | COc1ccccc1-c1nc(NCCCN2CCCC2)nc(C(Cl)(Cl)Cl)n1 [Cmpd 105] |  |  |  | 73 | 145 | 93 | 
20 | CSc1ccc(cc1)c2nc(nc(n2)C(Cl)(Cl)Cl)N3CC4CC3CN4 [Compound 723] |  |  |  | 92 | 128 | 118 | 
21 | COc1ccc(-c2nc(NCC3CCN(C)CC3)nc(C(Cl)(Cl)Cl)n2)cc1OC [Cmpd 520] | 19 | 82 | 45 |  |  |  | 
22 | CCN1CCC(CNc2nc(-c3ccccc3-c3ccc(C)cc3)nc(C(Cl)(Cl)Cl)n2)CC1 [Cmpd 259] |  |  |  | 105 | 162 | 113 | 
23 | Clc1ccc(cc1Cl)c2nc(nc(n2)C(Cl)(Cl)Cl)N3CC4CC3CN4 [Compound 716] |  |  |  | 335.2 | 540.4 | 439.4 | 
24 | COc1ccc(-c2nc(NCCN3CCCC3)nc(C(Cl)(Cl)Cl)n2)c2ccccc12 [Cmpd 278] |  |  |  | 17 | 35 | 48 | 

Row | Molecule | W2 (SYBR Green Assay IC50) [1] [ng/mL] | D6 (SYBR Green Assay IC50) [2] [ng/mL] | C235 (SYBR Green Assay IC50) [3] [ng/mL] | W2 [1] [ng/mL] | D6 [2] [ng/mL] | C235 [3] [ng/mL] | also measured
25 | CSc1ccc(-c2nc(NCc3cccnc3)nc(C(Cl)(Cl)Cl)n2)cc1 [Cmpd 160] |  |  |  | 238 | 789 | 896 | 
26 | CN(CC(=O)OC(C)(C)C)c1nc(-c2ccc(Cl)cc2)nc(C(Cl)(Cl)Cl)n1 [Compound 687, CN(CC(═O)OC(C)(C)C)c1nc(nc(n1)C(Cl)(Cl)Cl)c2ccc(Cl)cc2] |  |  |  | 501 | 501 | 501 | 
27 | COc1ccccc1Nc1nc(NCCC2CCCN2C)nc(C(Cl)(Cl)Cl)n1 (stereo not drawn) [Cmpd 63] |  |  |  | 794 | 603 | 540 | 
28 | CC1(C)C=Cc2cc(-c3nc(NCCN4CCCC4)nc(C(Cl)(Cl)Cl)n3)ccc2O1 [Cmpd 553] | 15.06 | 18.63 | 15.96 |  |  |  | 
29 | CN(C)CCCNc1nc(-c2ccc(F)cc2)nc(C(Cl)(Cl)Cl)n1 [Cmpd 448] | 7 | 35 | 40 |  |  |  | 
30 | COc1ccc(-c2nc(N3CCN(CCO)CC3)nc(C(Cl)(Cl)Cl)n2)c2ccccc12 [Cmpd 422] | 73 | 291 | 310 |  |  |  | 
31 | CN1CCN(CC1)c2ccc(Nc3nc(nc(n3)C(Cl)(Cl)Cl)C(Cl)(Cl)Cl)cc2 [Compound 731] |  |  |  | 165 | 229 | 263 | 
32 | COC1═CC(═CC═C1)C1═NC(═NC(═N1)C(Cl)(Cl)Cl)N1CCC(N)CC1 [Compound 629] | 15 | 21 | 19 |  |  |  | 
33 | Clc1cccc(-c2nc(NCCCN3CCCC3)nc(C(Cl)(Cl)Cl)n2)c1 [Cmpd 433] | 44 | 76 | 145 |  |  |  | 
34 | NC1(CNc2nc(-c3ccc(Cl)c(Cl)c3)nc(C(Cl)(Cl)Cl)n2)CCCCC1 [Compound 670, NC1(CNC2═NC(═NC(═N2)C2═CC(Cl)═C(Cl)C═C2)C(Cl)(Cl)Cl)CCCCC1] |  |  |  | 20 | 22 | 38 | 
35 | ClC(Cl)(Cl)c1nc(NCCc2ccccn2)nc(-c2ccccc2)n1 [Cmpd 188] |  |  |  | 42 | 176 | 197 | 
36 | ClC(Cl)(Cl)c1nc(-c2ccccc2)nc(N2CCCNCC2)n1 [Cmpd 408] | 84 | 190 | 189 |  |  |  | 
37 | CSc1ccc(-c2nc(NC(C)(C)CN)nc(C(Cl)(Cl)Cl)n2)cc1 [Cmpd 277] |  |  |  | 364 | 406 | 312 | 
38 | CC1═CC═C(C═C1)C1═NC(NCC2(N)CCCCC2)═NC(═N1)C(Cl)(Cl)Cl [Compound 660] |  |  |  | 9 | 8 | 17 | 
39 | COc1ccc(-c2nc(N3CCCN(CCO)CC3)nc(C(Cl)(Cl)Cl)n2)c2ccccc12 [Cmpd 463] | 201 | 355 | 306 |  |  |  | 
40 | CC(=O)N1CCN(c2nc(-c3ccc(Cl)c(Cl)c3)nc(C(Cl)(Cl)Cl)n2)CC1 [Example 3, 1-(4-(4-(3,4-dichlorophenyl)-6-(trichloromethyl)-1,3,5-triazin-2-yl)piperazin-1-yl)ethan-1-one] |  |  |  |  |  |  | IC50 [1]: 0.198 µg/mL (≈ 0.422 µM); IC50 [2]: 0.687 µg/mL (≈ 1.46 µM); IC50 [3]: 0.535 µg/mL (≈ 1.14 µM)
41 | Clc1cc(Cl)cc(-c2nc(NCc3cccnc3)nc(C(Cl)(Cl)Cl)n2)c1 [Cmpd 209] |  |  |  | 67 | 122 | 112 | 
42 | COc1ccc(-c2nc(NCC3CCN(C(C)C)CC3)nc(C(Cl)(Cl)Cl)n2)c2ccccc12 [Cmpd 498] | 66 | 247 | 125 |  |  |  | 
43 | CSc1ccc(-c2nc(NCCCN3CCCC3)nc(C(Cl)(Cl)Cl)n2)cc1 [Cmpd 44] |  |  |  | 204 | 462 | 638 | 
44 | COc1ccccc1-c1nc(N2CCCNCC2)nc(C(Cl)(Cl)Cl)n1 [Cmpd 218] |  |  |  | 38 | 104 | 73 | 
45 | COc1ccc(-c2nc(NCC(C)(C)N)nc(C(Cl)(Cl)Cl)n2)cc1OC [Cmpd 396] | 49 | 86 | 117 |  |  |  | 
46 | CC(C)N1CCC(CNc2nc(-c3ccc(C(C)(C)C)cc3)nc(C(Cl)(Cl)Cl)n2)CC1 [Cmpd 488] | 16 | 27 | 20 |  |  |  | 
47 | CCN1CCCC(Nc2nc(-c3cc(OC)cc(OC)c3)nc(C(Cl)(Cl)Cl)n2)C1 (stereo not drawn) [Cmpd 528] | 23 | 35 | 33 |  |  |  | 
48 | NC1CCN(c2nc(-c3ccc(F)cc3)nc(C(Cl)(Cl)Cl)n2)CC1 [Example 2, 1-(4-(4-fluorophenyl)-6-(trichloromethyl)-1,3,5-triazin-2-yl)piperidin-4-amine] |  |  |  |  |  |  | IC50 [1]: 0.078 µg/mL (≈ 0.2 µM); IC50 [2]: 0.137 µg/mL (≈ 0.351 µM); IC50 [3]: 0.15 µg/mL (≈ 0.384 µM)
